Where “and” joins values, the source holds several entries; their conditions need not be identical. Equal values may be shown once.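 96-well plates; 48 h exposure; 5 concentrations. Endpoints by linear interpolation between flanking doses. Not reached: highest tested concentration assigned. Abbreviation: GI50, concentration required for 50% inhibition of growth.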 Calls of active or inactive are those of the source. Cut-off read from the data, not from the text of the source: active = GI50 up to about 1.1 µM and inactive = higher.
Experiments:
Experiment in all cases: NCI tumour cell line growth inhibition, 48 h
[1] = system: MCF7
[2] = system: SNB-75
[3] = system: EKVX
[4] = system: NCI-H226
[5] = system: BT-549
[6] = system: K562
[7] = system: OVCAR-5
[8] = system: COLO 205
[9] = system: U-251
[10] = system: MOLT-4
[11] = system: SNB-19
[12] = system: SK-MEL-5
[13] = system: UO-31
[14] = system: HCT-15
[15] = system: NCI-H460
[16] = system: SF-295
[17] = system: UACC-257
[18] = system: KM12
[19] = system: IGROV-1
[20] = system: SW-620
[21] = system: RPMI-8226
[22] = system: 786-0
[23] = system: HOP-62
[24] = system: SF-539
[25] = system: OVCAR-3
[26] = system: SK-OV-3
[27] = system: MDA-N
[28] = system: HOP-92
[29] = system: SK-MEL-2
[30] = system: M14
[31] = system: OVCAR-4
[32] = system: Malme-3M
[33] = system: NCI-H23
[34] = system: RXF 393
[35] = system: A549
[36] = system: NCI/ADR-RES
[37] = system: MDA-MB-435
[38] = system: PC-3
[39] = system: CAKI-1
[40] = system: HCC 2998
[41] = system: HCT-116
[42] = system: SF-268
[43] = system: CCRF-CEM
[44] = system: Hs-578T
[45] = system: SN12C
[46] = system: HT-29
[47] = system: LOX IMVI
[48] = system: OVCAR-8
[49] = system: UACC-62
[50] = system: NCI-H522
[51] = system: MDA-MB-231
[52] = system: ACHN
[53] = system: T47D
[54] = system: TK-10
[55] = system: SR
[56] = system: SK-MEL-28
[57] = system: DU-145
[58] = system: HL-60
[59] = system: A498

For `CCc1n[nH]c(=O)n1CCCCCCCCn1c(CC)n[nH]c1=O`, the GI50 [1] was > 100 µM (inactive), the GI50 [2] was > 100 µM (inactive) and the GI50 [3] was > 100 µM (inactive). The GI50 [4] was > 100 µM (inactive), the GI50 [5] was > 100 µM (inactive) and the GI50 [6] was > 100 µM (inactive). The GI50 [7] was > 100 µM (inactive), the GI50 [8] was > 100 µM (inactive) and the GI50 [9] was > 100 µM (inactive). The GI50 [10] was > 100 µM (inactive), the GI50 [11] was > 100 µM (inactive) and the GI50 [12] was > 100 µM (inactive). For the same compound, the GI50 [13] was > 100 µM (inactive), the GI50 [14] was greater than 100 µM and the GI50 [15] was > 100 µM (inactive). The GI50 [16] was > 100 µM (inactive), the GI50 [17] was > 100 µM (inactive) and the GI50 [18] was > 100 µM (inactive). For the same compound, the GI50 [19] was > 100 µM (inactive), the GI50 [20] was > 100 µM (inactive) and the GI50 [21] was > 100 µM (inactive). For the same compound, the GI50 [22] was > 100 µM (inactive), the GI50 [23] was > 100 µM (inactive) and the GI50 [24] was > 100 µM (inactive). For the same compound, the GI50 [25] was > 100 µM (inactive), the GI50 [26] was > 100 µM (inactive) and the GI50 [27] was > 100 µM (inactive). The GI50 [28] was > 100 µM (inactive), the GI50 [29] was > 100 µM (inactive) and the GI50 [30] was > 100 µM (inactive). The GI50 [31] was > 100 µM (inactive), the GI50 [32] was > 100 µM (inactive) and the GI50 [33] was > 100 µM (inactive). The GI50 [34] was > 100 µM (inactive), the GI50 [35] was > 100 µM (inactive) and the GI50 [36] was > 100 µM (inactive). For the same compound, the GI50 [37] was > 100 µM (inactive), the GI50 [38] was > 100 µM (inactive) and the GI50 [39] was > 100 µM (inactive). The GI50 [40] was > 100 µM (inactive), the GI50 [41] was > 100 µM (inactive) and the GI50 [42] was > 100 µM (inactive). The GI50 [43] was > 100 µM (inactive), the GI50 [44] was > 100 µM (inactive) and the GI50 [45] was > 100 µM (inactive). The GI50 [46] was > 100 µM (inactive), the GI50 [47] was > 100 µM (inactive) and the GI50 [48] was > 100 µM (inactive). The GI50 [49] was > 100 µM (inactive), the GI50 [50] was > 100 µM (inactive) and the GI50 [51] was > 100 µM (inactive). The GI50 [52] was > 100 µM (inactive), the GI50 [53] was > 100 µM (inactive) and the GI50 [54] was > 100 µM (inactive). For the same compound, the GI50 [55] was > 100 µM (inactive).

With `CC(=O)c1c(-c2ccc(Cl)cc2)c(C#N)c(=S)n(C2OC(CO)C(O)C(O)C2O)c1-c1ccccc1` (stereo unspecified) the GI50 [1] was > 100 µM (inactive) and > 71 µM (inactive), the GI50 [2] was 14.7 µM (inactive) and the GI50 [4] was 61.4 µM (inactive). The GI50 [5] was > 100 µM (inactive), the GI50 [16] was > 100 µM (inactive) and 70.6 µM (inactive) and the GI50 [56] was 82.2 µM (inactive). For the same compound, the GI50 [17] was > 100 µM (inactive), the GI50 [18] was > 100 µM (inactive) and > 68.9 µM (inactive) and the GI50 [19] was 62.8 µM (inactive). The GI50 [20] was 59.6 µM (inactive), the GI50 [21] was 31.9 µM (inactive) and the GI50 [25] was > 80.4 µM (inactive) and 64.9 µM (inactive). The GI50 [26] was > 100 µM (inactive), the GI50 [27] was 80.7 µM (inactive) and 48.2 µM (inactive) and the GI50 [30] was > 100 µM (inactive). For the same compound, the GI50 [32] was > 100 µM (inactive), the GI50 [33] was > 100 µM (inactive) and the GI50 [34] was 83.4 µM (inactive) and 75.5 µM (inactive). The GI50 [57] was > 100 µM (inactive) and > 93.3 µM (inactive), the GI50 [36] was > 100 µM (inactive) and 98.9 µM (inactive) and the GI50 [37] was 77.6 µM (inactive). For the same compound, the GI50 [39] was 45.2 µM (inactive) and > 89.1 µM (inactive), the GI50 [40] was > 100 µM (inactive) and > 83.8 µM (inactive) and the GI50 [42] was 89.3 µM (inactive) and 61.5 µM (inactive). The GI50 [44] was > 100 µM (inactive), the GI50 [45] was > 100 µM (inactive) and > 85.7 µM (inactive) and the GI50 [46] was > 100 µM (inactive) and 52.1 µM (inactive). For the same compound, the GI50 [48] was > 100 µM (inactive) and > 57.3 µM (inactive), the GI50 [50] was > 100 µM (inactive) and 53.8 µM (inactive) and the GI50 [52] was 55.2 µM (inactive) and 45.5 µM (inactive). The GI50 [53] was > 82.6 µM (inactive) and the GI50 [54] was > 100 µM (inactive).

For `Cc1ccc(S(=O)(=O)N2CCc3cc(O)c([N+](=O)[O-])cc32)cc1`, the GI50 [1] was > 100 µM (inactive), the GI50 [2] was > 100 µM (inactive) and the GI50 [4] was > 100 µM (inactive). For the same compound, the GI50 [5] was > 100 µM (inactive), the GI50 [8] was > 100 µM (inactive) and the GI50 [9] was > 100 µM (inactive). For the same compound, the GI50 [10] was > 100 µM (inactive), the GI50 [11] was > 100 µM (inactive) and the GI50 [12] was > 100 µM (inactive). The GI50 [13] was > 100 µM (inactive), the GI50 [14] was greater than 100 µM and the GI50 [16] was > 100 µM (inactive). The GI50 [56] was > 100 µM (inactive), the GI50 [17] was > 100 µM (inactive) and the GI50 [18] was > 100 µM (inactive). For the same compound, the GI50 [19] was > 100 µM (inactive), the GI50 [20] was > 100 µM (inactive) and the GI50 [22] was > 100 µM (inactive). The GI50 [23] was > 100 µM (inactive), the GI50 [24] was > 100 µM (inactive) and the GI50 [26] was > 100 µM (inactive). For the same compound, the GI50 [27] was > 100 µM (inactive), the GI50 [29] was > 100 µM (inactive) and the GI50 [30] was > 100 µM (inactive). For the same compound, the GI50 [31] was > 100 µM (inactive), the GI50 [32] was > 100 µM (inactive) and the GI50 [33] was > 100 µM (inactive). For the same compound, the GI50 [58] was > 100 µM (inactive), the GI50 [34] was > 100 µM (inactive) and the GI50 [35] was > 100 µM (inactive). The GI50 [57] was > 100 µM (inactive), the GI50 [36] was > 100 µM (inactive) and the GI50 [37] was > 100 µM (inactive). The GI50 [59] was > 100 µM (inactive), the GI50 [38] was > 100 µM (inactive) and the GI50 [39] was > 100 µM (inactive). The GI50 [41] was > 100 µM (inactive), the GI50 [42] was > 100 µM (inactive) and the GI50 [43] was > 100 µM (inactive). For the same compound, the GI50 [44] was > 100 µM (inactive), the GI50 [45] was > 100 µM (inactive) and the GI50 [47] was > 100 µM (inactive). The GI50 [48] was > 100 µM (inactive), the GI50 [49] was > 100 µM (inactive) and the GI50 [50] was > 100 µM (inactive). For the same compound, the GI50 [51] was > 100 µM (inactive), the GI50 [52] was > 100 µM (inactive) and the GI50 [53] was > 100 µM (inactive). For the same compound, the GI50 [54] was > 100 µM (inactive).

From ChEMBL document CHEMBL1201862, “PubChem BioAssay data set” (2004)
